# Data reported in US20200138907A1, “Composition for Use in the Treatment of an Individual Suffering a Condition Necessitating New Bone Formation” (priority 2016, published 2020).
# Key:
# rabbits [1] = test: BMP-2 induced bone formation in subcutaneously implanted BCP constructs, biomembrane pocket model; assay type: in vivo, rabbit
# Experimental: For the comparative study (Table 2), inflammatory stimuli were added to the BCP, alone or in combination with BMP-2. Either 1.5 μg of BMP-2 or PBS (15 μl volume) was first applied. Fibrin glue (Tissucol 500®, Baxter, Deerfield, Ill., USA) was subsequently used (55 μl volume) to load the inflammatory mediators onto the constructs. For this purpose, the mediators were resuspended in 27.5 μl of the thrombin component (diluted 1:50 in PBS), then mixed with 27.5 μl of the fibrinogen component (diluted 1:30 in PBS) and immediately pipetted onto the BCP scaffolds. The control samples were treated with fibrin glue alone. The constructs were prepared on the day of surgery and stored in a humidified environment at 37° C. until implantation.
# After shaving and disinfecting the skin with 10% povidone-iodine, a midline incision was made to expose the paraspinal muscles. In the rabbits, four intramuscular pockets were created on each side by blunt dissection for implantation of the PMMA discs (FIG. 2B). The same discs were implanted in subcutaneous pockets via the same approach. Pockets were closed with a non-resorbable suture (Prolene®, Ethicon, USA), followed by closure of the skin (Monocryl®, Ethicon). At the second surgery, an incision was made in the membrane surrounding the PMMA disc, the disc was replaced by a BCP construct, and the opening was sutured (Prolene®, Ethicon). […] Fluorochrome labels were injected subcutaneously to determine the onset and location of new bone formation (van Gaalen et al., 2010): calcein green (10 mg/kg s.c. in 0.2 M NaHCO3, Sigma), oxytetracycline (25 mg/kg s.c. in 50/50 PBS/demineralised water, Merck Millipore, Billerica, USA) xylenol orange (30 mg/kg s.c. in 0.12 M NaHCO3, Sigma). The incorporation of fluorochromes in the bone was examined by fluorescence microscopy on methyl methacrylate-embedded sections. The rabbits were killed 12 weeks after the second surgery under general anesthesia, by intravenous Pentobarbital (Euthanimal®, Alfasan Nederland BV, Woerden, The Netherlands). The rats were killed with CO2, 8 weeks after the second surgery.
# After retrieval of the constructs, a quarter of each sample was removed for decalcification and paraffin embedding. The remaining material was fixed in 4% paraformaldehyde, dehydrated by an ethanol series and embedded in methyl methacrylate (MMA, Merck Millipore).
# rabbits [2] = test: bone induction in intramuscularly implanted BCP constructs without BMP-2, biomembrane pocket model; assay type: in vivo, rabbit; conditions: TNF-α 1, 10, 100 ng, no BMP-2, intramuscular, 12 weeks
# Experimental: First, an assessment study was performed to verify the potential for ectopic bone formation in the biomembrane pocket model. […] The bone volume (area%) in the BCP constructs was the primary outcome after 8 (rats) or 12 (rabbits) weeks. Subsequently, the rabbit model (n=11) was used to 1) screen for the potential of inflammatory stimuli to induce bone intramuscularly and to 2) screen for the effects of inflammatory stimuli on BMP-induced bone formation subcutaneously. The bone volume (area%) in the BCP constructs was the primary outcome after 12 weeks.
# Fibrin glue (Tissucol 500®, Baxter, Deerfield, Ill., USA) was subsequently used (55 μl volume) to load the inflammatory mediators onto the constructs. […]
# After shaving and disinfecting the skin with 10% povidone-iodine, a midline incision was made to expose the paraspinal muscles. […] The incorporation of fluorochromes in the bone was examined by fluorescence microscopy on methyl methacrylate-embedded sections. […]
# After retrieval of the constructs, a quarter of each sample was removed for decalcification and paraffin embedding. […] The samples were completely sectioned and scored for the presence of bone. Two mid-sections were pseudo-coloured in Adobe Photoshop CS6 (Adobe Systems, San Jose, USA) to quantify the percentage of bone in the available pore space (bone area %). […]
substance,measurement,setting,value
TNF-α,bone area %,"rabbits [1]; 10 ng TNF-α with 1.5 μg BMP-2, subcutaneous, 12 weeks, p=0.005 vs control",13.6±9.9 area %
same,4-week fluorochrome label (calcein) incorporation in bone,rabbits [1]; BCP constructs with 1.5 μg BMP-2 and 10 ng TNF-α vs BMP-2 alone,observed less frequently
same,8-week fluorochrome label (xylenol orange) incorporation in bone,"rabbits [1]; BCP constructs with 1.5 μg BMP-2 and 10 ng TNF-α vs BMP-2 alone, gross examination",more abundant
same,effect on BMP-2 induced bone formation (in words),"rabbits [1]; all doses, with 1.5 μg BMP-2, subcutaneous, 12 weeks",stimulatory effect
same,bone formation at a higher concentration of TNF-α,"rabbits [1]; higher than 10 ng TNF-α, with 1.5 μg BMP-2, subcutaneous, 12 weeks",reduction of bone formation
same,concentration dependence of bone induction,rabbits [2],no concentration dependence
same,number of constructs with bone formation,rabbits [2],2 constructs
